Laboratory results published in US11433086B2, “Combination of T-cell checkpoint inhibitors with inhibitors of e-selectin or CXCR4, or with heterobifunctional inhibitors of both E-selectin and CXCR4” (GlycoMimetics, Inc., priority 2016, dated 2022).

How the values were obtained:
[1] = test system: Human E-selectin/Ig chimera; assay: Competitive binding assay, sLe^a-polyacrylamide conjugate to immobilized E-selectin; details: sLe^a-polyacrylamide/streptavidin-HRP conjugate
Method: FIG. 21 relates to an experiment carried out to determine the competitive binding activity (IC50) of GMI-1359 against E-selectin and CXCR4. GMI-1359 was assessed for inhibition of sialyl Le^X binding to immobilized E-selectin and α-CXCR4 antibody binding to Raji cells.
The inhibition assay to screen GMI-1359 as an antagonist of E-selectin was a competitive binding assay, which allowed the determination of IC50 values. Human E-selectin/Ig chimera was immobilized by incubation at 37° C. for 2 hour in 96-well microtiter plates. To reduce nonspecific binding, BSA was added to each well and incubated at room temperature for 2 hours. After incubation with E-selectin/Ig chimera, the plate was washed and serial dilutions of the test compounds were added to the wells in the presence of conjugates of biotinylated, sLe^a-polyacrylamide with streptavidin/horseradish peroxidase and incubated for 2 hours at room temperature. To determine the amount of sLe^a bound to immobilized E-selectin after washing, the peroxidase substrate, 3,3′,5,5′ tetramethylbenzidin (TMB) was added. After 3 minutes, the enzyme reaction was stopped by the addition of H3PO4, and the absorbance of light at a wavelength of 450 nm was determined. […]

[2] = test system: subcutaneous CT26.WT carcinoma xenografts; assay: Anti-cancer activity against subcutaneous CT26.WT carcinoma in Balb/c mice (tumor growth delay, response status); assay type: in vivo; parameters: key to Tumor Growth Delay, statistical comparison vs G1 (Vehicle (Saline)) / Tumor Growth Delay, statistical comparison vs G2 (GMI-1359) / Tumor Growth Delay, statistical comparison vs G3 (anti KLH; Rat IgG2b, LTF-2) / Tumor Growth Delay, statistical comparison vs G4 (anti-mPD-L1) / Tumor Growth Delay, statistical comparison vs G5 (GMI-1359 + anti KLH; Rat IgG2b, LTF-2) / Tumor Growth Delay, statistical comparison vs G6 (GMI-1359 + anti-mPD-L1) / Tumor Growth Delay, statistical comparison vs G7 (Vehicle (Saline)): + = P < 0.05; NS = Nonsignificant
Method: The anti-cancer activity of an anti-mPD-L1 antibody (10F.9G2) and GMI-1359 was compared to a rat isotype control antibody against indeterminate subcutaneous CT26.WT carcinoma xenografts in female Balb/c mice. An immune profile of each mouse was determined by sampling tumors and spleens, staining for several markers of an active immune response, and detecting the levels of these markers via flow cytometry. Flow cytometry markers included: T-Cells (CD4^+ and CD8^+), Regulatory T-Cells (Tregs). (CD4^+/CD25^+/FoxP3^+), MDSCs (CD11b^+/Gr1^+) and co-expression of CCR7^+ and CD62^+ added to the existing CD4/CD8 panel.
CT26.WT cells were grown in RPMI 1640 medium which was modified with 1 mM Na pyruvate, 10 mM HEPES, 2.5 g/L glucose and supplemented with 10% nonheat-inactivated Fetal Bovine Serum (FBS) and 1% 100X Penicillin/Streptomycin/L-Glutamine (PSG). The growth environment was maintained in an incubator with a 5% CO2 atmosphere at 37° C.
When expansion was complete, the cells were trypsinized using 0.25% trypsin-EDTA solution. Following cell detachment, the trypsin was inactivated by dilution with complete growth medium and any clumps of cells were separated by pipetting. The cells were centrifuged at 200 rcf for 8 minutes at 4° C., the supernatant was aspirated, and the pellet was re-suspended in cold Dulbecco's Phosphate Buffered Saline (DPBS) by pipetting. An aliquot of the homogeneous cell suspension was diluted in a trypan blue solution and counted using a Luna automated cell counter. The preimplantation cell viability was 92%. The cell suspension was centrifuged at 200 rcf for 8 minutes at 4° C. The supernatant was aspirated and the cell pellet was re-suspended in cold serum-free medium to generate a final concentration of 2.50E+06 trypan-excluding cells/mi. The cell suspension was maintained on wet ice during implantation. Following implantation, an aliquot of the remaining cells was diluted with a trypan blue solution and counted to determine the post-implantation cell viability (91%).
Test animals were implanted subcutaneously, high in the axilla (just under the fore limb) on Day 0 with 5.00E+05 cells in 0.2 ml of serum-free medium using a 27-gauge needle and syringe.
All mice were sorted into study groups based on body weights such that the mean body weights in each group was within 10% of the overall mean. Treatment began on Day 3.
GMI-1359 was dosed intraperitoneally at 40 mg/kg, every day for 20 days (Days 3-22) and every day for 12 days (Days 3-14) for Groups 2 and 8, respectively.
Anti-KLH; Rat IgG2b, LTF-2 was dosed intraperitoneally at 10 mg/kg, every 3 days for 2 treatments, with 3 days off for 2.5 weeks (Days 3, 6, 10, 13 and 17) for Group 3. Group 9 was dosed intraperitoneally at 10 mg/kg, every 3 days for 2 treatments, with 3 days off for 2 weeks (Days 3, 6, 10 and 13).
Groups 4 and 10: Anti-mPD-L1, 10F.9G2 was dosed intraperitoneally at 10 mg/kg, every 3 days for 2 treatments, with 3 days off for 2.5 weeks (Days 3, 6, 10, 13 and 17) for Group 4.
Group 10 was dosed intraperitoneally at 10 mg/kg, every 3 days for 2 treatments, with 3 days off for 2 weeks (Days 3, 6, 10 and 13).
GMI-1359 was dosed in combination with anti-KLH; Rat IgG2b, LTF intraperitoneally at 40 mg/kg and 10 mg/kg, respectively. In Group 5, GMI-1359 was dosed once a day for 20 days (Days 3-22) and anti-KLH; Rat IgG2b was given every 3 days for 2 treatments, with 3 days off for 2.5 weeks (Days 3, 6, 10, 13 and 17). In Group 11, GMI-1359 was dosed once a day for 12 days (Days 3-14) and anti-KLH; Rat IgG2b was dosed every 3 days for 2 treatments, with 3 days off for 2 weeks and (Days 3, 6, 10 and 13). On days when both compounds were dosed, GMI-1359 was given first and then anti-KLH; Rat IgG2b, LTF was given within minutes thereafter.
Groups 6 and 12: GMI-1359 and anti-mPD-L1, 10F.9G2 were dosed in a combination regimen intraperitoneally at 40 mg/kg and 10 mg/kg, respectively. […]

[3] = listed as groups G8-G12 (sampling groups)
[4] = printed directly after the Group 8 / Group 12 values, group not named

`CCC1CC(C(=O)NCCNCc2ccc(CN3CCCNCCNCCCNCC3)c(Br)c2)CC(OC2OC(CO)C(O)C(O[C@@H](CC3CCCCC3)C(=O)O)C2NC(C)=O)C1OC1OC(C)C(O)C(O)C1O` (stereo partly shown) [GMI-1359] was tested, and the “inhibition of ligand binding to E-selectin” value [1] was “inhibits ligand binding”, the “disease status of the group” value ([2]; Group 2, single agent) was “all animals were identified with progressive disease” and the “statistical significance of anti-tumor effect” value ([2]; Groups 2, 4, 6) was “did not produce a statistically significant (p>0.05) anti-tumor effect”. The “regressions or tumor free survivors” value ([2]; Groups 2-6) was “no regressions or tumor free survivors”, the “median time to evaluation size (750 mm^3) from the start of dosing” value ([2]; Groups 2-6: GMI-1359 40 mg/kg IP QDx20 (Days 3-22), antibody 10 mg/kg IP Days 3,6,10,13,17) was 18.4 days and the “median post Day 9 tumor volume doubling time” value ([2]; Groups 2-6: GMI-1359 40 mg/kg IP QDx20, antibody 10 mg/kg IP Days 3,6,10,13,17) was 3.3 days. The “incidence of progressive disease” value ([2]; Groups 2-6, tumor burden >=2 fold that on Day 9) was 100%, the “tumor growth delay (T-C)” value ([2]; Groups 2-6 vs Group 1 saline, evaluation size 750 mm^3, GMI-1359 40 mg/kg IP QDx20, antibody 10 mg/kg IP Days 3,6,10,13,17) was 2.5 days and the “regressions or tumor free survivors” value ([2]; Groups 8-12 (sampling groups)) was “no regressions or tumor free survivors”. The “incidence of progressive disease” value ([2]; Groups 8-12 (sampling groups, euthanized Day 15)) was 100%, the “median time to evaluation size” value ([2]; Groups 8-12: GMI-1359 40 mg/kg IP QDx12 (Days 3-14), antibody 10 mg/kg IP Days 3,6,10,13, euthanized Day 15) was 14.3 days and the “median post Day 9 tumor volume doubling time” value ([2]; Groups 8-12: GMI-1359 40 mg/kg IP QDx12, antibody 10 mg/kg IP Days 3,6,10,13, euthanized Day 15) was 1.8 days. For the same molecule, the “Tumor Growth Delay, statistical comparison vs G1 (Vehicle (Saline))” value ([2]; listed as groups G2-G6, time to evaluation size 750 mm^3) was “NS”, the “Tumor Growth Delay, statistical comparison vs G1 (Vehicle (Saline))” value [2, 3] was “NS” and the “Tumor Growth Delay, statistical comparison vs G2 (GMI-1359)” value [2, 3] was “NS”. For the same molecule, the “Tumor Growth Delay, statistical comparison vs G3 (anti KLH; Rat IgG2b, LTF-2)” value [2, 3] was “NS”, the “Tumor Growth Delay, statistical comparison vs G4 (anti-mPD-L1)” value [2, 3] was “NS” and the “Tumor Growth Delay, statistical comparison vs G5 (GMI-1359 + anti KLH; Rat IgG2b, LTF-2)” value [2, 3] was “NS”. The “Tumor Growth Delay, statistical comparison vs G6 (GMI-1359 + anti-mPD-L1)” value [2, 3] was “NS”, the “Tumor Growth Delay, statistical comparison vs G7 (Vehicle (Saline))” value [2, 3] was “NS” and the “median time to progression” value [2, 4] was 14.5 days. For the same molecule, the “progression free survival period” value [2, 4] was 5.5 days.
